Test results reported in publication PMC6261997, “Synergistic enzymatic and bioorthogonal reactions for selective prodrug activation in living systems” (Nature Communications, 2018).
Read-outs that look alike come from different tables or passages of the source.

Columns and labels:
HeLa tumours = assay: Tumour inhibition test, subcutaneous HeLa xenograft; type: in vivo, BALB/c nude mice; conditions: for tumour growth: i.v., three courses (day 0, 3, 6), 50 mg kg^−1 2, 30 mg kg^−1 TCO-Dox, 5 mg kg^−1 Dox, or 50 mg kg^−1 2 then 30 mg kg^−1 TCO-Dox after 2 h
Description: All animal studies were performed in accordance with the Institutional Animal Use and Care Regulations approved by the National Institutes of Health Clinical Center/Animal Care and Use Committee (NIH CC/ACUC). Athymic female nude mice (5–6 weeks old) were purchased from Beijing Huafukang Bioscience Co., Ltd., and raised in a specific-pathogen-free barrier facility. Tumour-bearing mice were established by subcutaneously injecting a suspension of 10^6 HeLa cells per mouse into the front flank of each nude mouse.
After 14 days, the mice were sacrificed.

HeLa cells = assay: MTT cell viability / cytotoxicity assay, HeLa cells; type: cell-based; conditions: for EC50: Homo sapiens, HeLa; for EC50 ratio CCC-HEH-2/HeLa / EC50 ratio HUVECs/HeLa: ratio of 72 h EC50 values
Description: (§1) Cells were plated in flat-bottom 96-well plates at a density of 3 × 10^3 cells per well. After 12 h of cell attachment, the cell culture medium was replaced with 100 μL of pre-warmed media containing the compounds at different concentrations. After 24–72 h of incubation, cell proliferation was assessed by the MTT assay. A fresh mixture of 10 μL of thiazolyl blue tetrazolium bromide (MTT) and 90 μL of medium were freshly added to each well. After incubation for 4 h, the medium was gently removed. The formazan crystals that formed were dissolved in 110 μL of DMSO, and the absorbance was subsequently measured with a plate reader (Perkin Elmer) at 490 nm. EC50 values were calculated using Origin software. To measure the cytotoxicity of 2, HeLa cells, HUVECs, Saos-2 cells and CCC-HEH-2 cells were incubated with 100 μL of 1–500 μM 2 for 24 h, and then, cell viability was determined. To measure the cytotoxicity of TCO-Dox or Dox, HeLa cells, HUVECs, Saos-2 cells or CCC-HEH-2 cells were incubated with 200 μL of 0.001–10 μM TCO-Dox or Dox for 72 h, and the cell viability was determined. To determine the cytotoxicity of activated Dox, HeLa cells, HUVECs, […], and then, 2 was removed and 200 μL of 0.0001–10 μM TCO-Dox was added for 72 h of incubation, and cell viability was determined. […]
(§2) Prodrug activation efficacy in cells: Cells were plated on flat bottom 96-well plates at a
(§3) density of 3x10^3 cells per well. After 12 h attachment, cells were incubated with 100 µL
(§4) 500 µM of 2 for 6 h before removing 2 and the addition of 200 µL 0.0001-10 µM of […]

[1] = Systemic toxicity in treated mice (body weight, death, organ histology)
Description: When the tumour volume reached approximately 80–100 mm^3, the mice were divided into five groups (n = 8) and used for therapeutic studies. Mice in the treatment group received an i.v. injection of 50 mg kg^−1 2 and a subsequent 30 mg kg^−1 TCO-Dox after a 2-h interval. In the control groups, mice were received 50 mg kg^−1 2, 30 mg kg^−1 TCO-Dox, 5 mg kg^−1 Dox or saline. The mice received three treatment courses on day 0, day 3 and day 6. Tumour size and body weight were measured every 2 days. After 14 days, the mice were sacrificed. Tumours and main organs were obtained for histological examination with HE staining.
Effect of the dosage of Dox to the mice body weight.
The arrows on x-axis marked the administrations of Dox (n= 8).
indicate standard deviation.
Histological examination of heart, liver, spleen, lung and
Organs were harvested after treatment at day 14 and stained by hematoxylin and

Saos-2 cells = assay: MTT cell viability / cytotoxicity assay, Saos-2 cells; type: cell-based; conditions: for EC50: Homo sapiens; for EC50 ratio CCC-HEH-2/Saos-2 / EC50 ratio HUVECs/Saos-2: ratio of 72 h EC50 values
Description: (§5) Cells were plated in flat-bottom 96-well plates at a density of 3 × 10^3 cells per well. After 12 h of cell attachment, the cell culture medium was replaced with 100 μL of pre-warmed media containing the compounds at different concentrations. After 24–72 h of incubation, cell proliferation was assessed by the MTT assay. A fresh mixture of 10 μL of thiazolyl blue tetrazolium bromide (MTT) and 90 μL of medium were freshly added to each well. After incubation for 4 h, the medium was gently removed. The formazan crystals that formed were dissolved in 110 μL of DMSO, and the absorbance was subsequently measured with a plate reader (Perkin Elmer) at 490 nm. EC50 values were calculated using Origin software. To measure the cytotoxicity of 2, HeLa cells, HUVECs, Saos-2 cells and CCC-HEH-2 cells were incubated with 100 μL of 1–500 μM 2 for 24 h, and then, cell viability was determined. To measure the cytotoxicity of TCO-Dox or Dox, HeLa cells, HUVECs, Saos-2 cells or CCC-HEH-2 cells were incubated with 200 μL of 0.001–10 μM TCO-Dox or Dox for 72 h, and the cell viability was determined. To determine the cytotoxicity of activated Dox, HeLa cells, HUVECs, Saos-2 cells or CCC-HEH-2 cells were pre-incubated with 100 μL of 500 μM 2 for 6 h, and then, 2 was removed and 200 μL of 0.0001–10 μM TCO-Dox was added for 72 h of incubation, and cell viability was determined. […]
Prodrug activation efficacy in cells: Cells were plated on flat bottom 96-well plates at a density of 3x10^3 cells per well. After 12 h attachment, cells were incubated with 100 µL 500 µM of 2 for 6 h before removing 2 and the addition of 200 µL 0.0001-10 µM of TCO-Dox. Cells were further incubated for 72 h before measuring the viability by the MTT […]
Clonogenic assay of cells in vitro: Clonogenic assay was performed according to the standard protocol.6 2×10^5 attached cells were treated with 500 µM of 2 for 6 h in culture dishes. Cells were then detached, re-suspended in cultural medium and counted accurately. The cell suspension was diluted into the desired seeding concentration and cells were seeded in 6-well plates at a density of 200 cells per well for CCC-HEH-2 and 400 cells per well for HeLa, Saos-2 and HUVECs. After incubation for 10 days, the cultural medium was removed and cells were rinsed carefully with PBS. 2 mL of a mixture of 6.0% (vol/vol) glutaraldehyde and 0.5% (wt/vol) crystal violet was added and kept for 30 min.
The glutaraldehyde crystal violet mixture was removed carefully. The colonies were rinsed with water and dried in normal air at room temperature. The number of the colonies was counted using a stereomicroscope.
When untreated cells are plated as a single-cell suspension at low densities, they will grow to colonies. The plating efficiency (PE) is the ratio of the number of colonies to the […]
(Supplementary Equation 1)
The number of colonies that arise after treatment of cells, expressed in terms of PE, is called the surviving fraction (SF): […]

HUVECs = assay: MTT cell viability / cytotoxicity assay, HUVECs; type: cell-based; conditions: for EC50: Homo sapiens, HUVEC
Description: as §1, §2, §3, §4

CCC-HEH-2 cells = assay: MTT cell viability / cytotoxicity assay, CCC-HEH-2 cells; type: cell-based; conditions: Homo sapiens, read-out: EC50, CCC-HEH-2
Description: as §5

[2] = UPLC-MS/MS pharmacokinetic analyses in tumour, liver and plasma; type: in vivo, BALB/c nude mice; conditions: i.v. 30 mg kg-1 TCO-Dox
Description: For in vivo prodrug activation, mice received an i.v. injection of 50 mg kg^−1 2 and a subsequent 30 mg kg^−1 TCO-Dox after a 2-h interval. After different time intervals, blood samples were collected from the tail veins, and then, the tumours and livers were harvested for UPLC-MS/MS analysis.
UPLC-MS/MS analyses: UPLC-MS/MS metabolomic analyses were performed using a
multiple reaction-monitoring mode (MRM). Data acquisition and processing were performed using LabSolutions version 5 software. Measurements were carried out at
Dox, solvent A consisted of 0.1% formic acid in water and solvent B consisted of 0.1% formic acid in mass spectrometric grade acetonitrile; (2) for compound TCO-Dox, solvent A consisted of 100% water and solvent B consisted of 100% mass spectrometric grade acetonitrile. Injection volume was 2 or 10 L. The mass spectrometer was interfaced with the liquid chromatograph using an electrospray ion source. The nitrogen nebulizing gas flow was set at 10 L min-1 and the drying gas flow at 15 mL min-1. 4500 V were used for the interface voltage. The temperature of the block heater was maintained at 400 °C and the one of the desolvation line at 250 °C. The MRM transitions were
Dox. The collision gas used was argon at 230 kPa. The dwell time was set to 100 msec and the pause time to 3 msec.
Sample preparation: blood samples were collected from the tail vein of mice. Plasma […]

[3] = In vitro decaging of TCO-Dox by 2 (UPLC-MS); conditions: TCO-Dox mixed with 2 in 25% acetonitrile in H2O, 37 °C
Description: The Tz counterpart prodrug TCO-Dox was prepared according to previously published procedures using the axial tautomer of TCO[27]. After the selection of optimized Tz and TCO, the decaging reactions in our study were further characterized (Fig. 2d). After mixing 2 μL of 10 mM TCO-Dox with 2.5 μL of 20 mM 2 in 25% acetonitrile in H2O at 37 °C, the reaction mixture was analysed by ultra-performance liquid chromatography-mass spectrometry (UPLC-MS) at different time points. […] Similarly, we prepared TCO-caged coumarin (TCO-CMR, see Supplementary Methods for a detailed synthesis protocol)[23]. According to a previously developed fluorescence liberation, the fluorescence of coumarin was restored rapidly in the presence of Tz derivatives (Supplementary Fig. 6).

## COc1cccc2c1C(=O)c1c(O)c3c(c(O)c1C2=O)C[C@@](O)(C(=O)CO)C[C@@H]3O[C@H]1C[C@H](N)[C@H](O)[C@H](C)O1 [Dox, doxorubicin, reference compound]
HeLa tumours
  tumour growth: tumour growth could be inhibited
HeLa cells; 72 h cytotoxicity, MTT, Activated Dox: cells pre-incubated with 500 μM 2 for 6 h, then TCO-Dox 72 h, read-out: EC50, HeLa
  EC50: 732 nM
HeLa cells
  EC50 ratio CCC-HEH-2/HeLa: 0.115
  EC50 ratio HUVECs/HeLa: 0.182
[1]; 6.0 mg kg-1 Dox
  death of mice: the mice began to die eleven day
[1]; 7.5 mg kg-1 Dox
  death of mice: the mice began to die six
[1]; 15 mg kg-1 Dox
  death of mice: the mice died within five days
Saos-2 cells; SAOS-2, 72 h cytotoxicity, MTT, Activated Dox: cells pre-incubated with 500 μM 2 for 6 h, then TCO-Dox 72 h, read-out: EC50, Saos-2
  EC50: 0.425 µM
Saos-2 cells
  EC50 ratio CCC-HEH-2/Saos-2: 0.198
  EC50 ratio HUVECs/Saos-2: 0.313
HUVECs; 72 h cytotoxicity, MTT, Activated Dox: cells pre-incubated with 500 μM 2 for 6 h, then TCO-Dox 72 h, read-out: EC50, HUVECs
  EC50: 133 nM
CCC-HEH-2 cells; 72 h cytotoxicity, MTT, Activated Dox: cells pre-incubated with 500 μM 2 for 6 h, then TCO-Dox 72 h
  EC50: 0.084 µM

## COc1cccc2c1C(=O)c1c(O)c3c(c(O)c1C2=O)CC(O)(C(=O)CO)CC3OC1CC(NC(=O)OC2C=CCCCCC2)C(O)C(C)O1 (stereo not shown) [TCO-Dox]
[2]
  concentration of TCO-Dox in plasma: relatively high concentration of TCO-Dox remaining in the blood
HeLa tumours; after treatment for 14 days
  histological examination of dissected tumours (HE staining): the HeLa cells remained normal
HeLa tumours
  tumour growth: rapid growth similar to that observed in the saline control group
HeLa cells; 72 h
  EC50 higher than that of Dox, HeLa cells: ~10 fold
HeLa cells; read-out: EC50, HeLa, 72 h cytotoxicity, MTT, Activated Dox: cells pre-incubated with 500 μM 2 for 6 h, then TCO-Dox 72 h
  EC50: 6790 nM
HeLa cells; read-out: EC50 against HeLa cells, cells pre-incubated with 300 μM 2 for 6 h, then TCO-Dox 72 h
  EC50: 1200 nM
HeLa cells; read-out: EC50 against HeLa cells, cells pre-incubated with 500 μM 2 for 6 h, then TCO-Dox 72 h
  EC50: 29.8 nM
HeLa cells; pre-incubation 6 h, then TCO-Dox 72 h
  EC50 against HeLa cells with 300 μM 2 higher than with 500 μM 2: approximately 40 fold
HeLa cells
  EC50 ratio CCC-HEH-2/HeLa: 0.908
  EC50 ratio HUVECs/HeLa: 0.855
Saos-2 cells; SAOS-2, read-out: EC50, Saos-2
  EC50: 7.57 µM
Saos-2 cells
  EC50 ratio CCC-HEH-2/Saos-2: 0.815
  EC50 ratio HUVECs/Saos-2: 0.767
HUVECs; 72 h
  EC50 higher than that of Dox, HUVECs: more than 40 fold
HUVECs; read-out: EC50, HUVECs, 72 h cytotoxicity, MTT, Activated Dox: cells pre-incubated with 500 μM 2 for 6 h, then TCO-Dox 72 h
  EC50: 5810 nM
HUVECs; read-out: EC50 against HUVECs, cells pre-incubated with 300 μM 2 for 6 h, then TCO-Dox 72 h
  EC50: 367 nM
HUVECs; read-out: EC50 against HUVECs, cells pre-incubated with 500 μM 2 for 6 h, then TCO-Dox 72 h
  EC50: 272 nM
CCC-HEH-2 cells
  EC50: 6.17 µM
[3]
  time to complete liberation of Dox: ≤ 2 min
